Laboratory results reported in patent publication US20020128185A1, “Pharmaceutical compounds” (priority 1998, published 2002).
Entries after “also recorded” stand apart in the source; their conditions may differ.

Assays:
[1] = test system: SKVLB1 cells (vinblastine-resistant, P-glycoprotein-overexpressing sub-line of SKOV3); assay: Inhibition of growth of SKVLB1 cells; format: cell-based; details: Homo sapiens
Experimental: The Jurkat T cell leukemia line and A-10 rat aortic smooth muscle cells are obtained from the American Type Culture Collection and are cultured in BME containing 10% FBS and 50 μg/mL gentamycin sulfate. […] Both cell lines are maintained in BME containing 10% FBS and 50 μg/mL gentamycin sulfate.
Cell proliferation assays are performed as described by Skehan et al. For Jurkat cells, cultures are treated with the indicated drugs as described in Skehan and total cell numbers are determined by counting the cells in a hemacytometer. The percentage of cells in mitosis are determined by staining with 0.4% Giemsa in PBS followed by rapid washes with PBS. At least 1000 cells per treatment are scored for the presence of mitotic figures and the mitotic index is calculated as the ration of the cells with mitotic figures to the total number of cells counted.
SKVLB1 cells are resistant to natural product anticancer drugs because of their over expression of P-glycoprotein.

[2] = test system: A-10 rat aortic smooth muscle cells; assay: Immunofluorescence assays of the cytoskeleton in A-10 cells; format: cell-based; details: for Microtubule repolymerization after removal of drug: 100 nM for 24 hr
Experimental: A-10 cells are grown to near-confluency on glass coverslips in BME/10% FBS. Compounds in PBS are added to the indicated final concentrations and cells are incubated for an additional 24 hours. For the staining of microtubules and intermediate filaments, the cells are fixed with cold methanol and incubated with PBS containing 10% calf serum to block nonspecific binding sites. Cells are then incubated at 37° C for 60 min. with either monoclonal anti-S-tubulin or with monoclonal anti-vimentin at dilutions recommended by the manufacturer. Bound primary antibodies are subsequently visualized by a 45-minute incubation with fluorescein-conjugated rabbit antimouse IgG. The coverslips are mounted on microscope slides and the fluorescence patterns are examined and photographed using a Zeiss Photomicroscope Ill equipped with epifluorescence optics for fluorescein. […] PBS containing 100 nM TRITC-phalloidin is then added and the mixture is allowed to incubate for 45 min. at 37° C. The cells are washed rapidly with PBS before the coverslips are mounted and immediately photographed as described above.
After 24 hours, microtubules and vimentin intermediate filaments are visualized by indirect immunofluorescence and microfilaments are stained using TRITC-phalloidin. The morphological effects of each drug is examined.
After 24 hours, microtubule organization is examined by immunofluorescence as described above.
The cells are then washed and incubated in drug-free medium for periods of 1 hour or 24 hours. […] Cells are visualized for microtubule state after treatment with a cryptophycin compound of this invention at either 1 hour or 24 hours after removal of the cryptophycin compounds.

CC(=O)O[C@H]1C(=O)[C@@]2(C)[C@H]([C@H](OC(=O)c3ccccc3)[C@]3(O)C[C@H](OC(=O)[C@H](O)[C@@H](NC(=O)c4ccccc4)c4ccccc4)C(C)=C1C3(C)C)[C@]1(OC(C)=O)CO[C@@H]1C[C@@H]2O [Taxol, taxol]
IC50 [1]: 8 µM | Microtubule organization in taxol-treated cells ([2]; 10 μM taxol, compared with control cells): extensively bundled | Effect of taxol pretreatment on vinblastine-induced microtubule depolymerization ([2]; 3 hours 10 μM taxol before 100 nM vinblastine, 24 hours): prevented microtubule depolymerization in response to vinblastine

C=C1[C@@H](C)[C@H]2[C@H](Cc3ccccc3)NC(=O)[C@]23OC(=O)/C=C/[C@H](O)CCC[C@@H](C)C/C=C/[C@H]3[C@@H]1O [Cytochalasin B, cytochalasin B]
Effect on distribution of microtubules and intermediate filaments ([2]; 2 μM cytochalasin B, 24 hours): did not affect the distribution of either microtubules or intermediate filaments | Effect on microfilaments ([2]; 2 μM cytochalasin B, 24 hours, TRITC-phalloidin staining): complete depolymerization of microfilaments

COc1ccc(C[C@H]2NC(=O)/C=C/C[C@@H]([C@H](C)/C=C/c3ccccc3)OC(=O)[C@H](CC(C)C)NC(=O)CC(CC(C)C)NC2=O)cc1Cl (stereo partly shown)
melting point: 258 to 260 °C

CC[C@]1(O)C[C@@H]2CN(CCc3c([nH]c4ccccc34)[C@@](C(=O)OC)(c3cc4c(cc3OC)N(C)[C@H]3[C@@](O)(C(=O)OC)[C@H](OC(C)=O)[C@]5(CC)C=CCN6CC[C@]43[C@@H]65)C2)C1 [Vinblastine, vinblastine]
IC50 [1]: 4.2 µM | Microtubule repolymerization after removal of drug ([2]; then 1 hour in drug-free medium): significant levels of microtubules after 1 hour | Microtubule repolymerization after removal of drug ([2]; then 24 hours in drug-free medium): complete morphological recovery by 24 hour | Effect on microtubules ([2]; 100 nM vinblastine, 24 hours, not pretreated): complete depolymerization of microtubules; also recorded: complete microtubule depolymerization
